Experimental data published in PubChem BioAssay AID1963868 (Molecular Pharmacology Branch, DTP, NCI, 2024).
pIC50: −log10 of the molar value.

Test system: KRAS PDC tumor spheroids (HUVEC+MSC), viability
Assay: Anticancer human tumor 254851-301-R-J1-PDC patient-derived colon carcinoma cell line growth inhibition [KRAS2]
Settings: for pIC50: curve of first compound; for viability, T/C: stronger effect = lower value
Outline: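 KRAS-mutant tumor cells were grown as spheroids with HUVEC endothelial cells and human MSCs as stroma. Targeted agents were tested alone and with KRAS pathway inhibitors. Doses started at or near clinical Cmax, or 10 microM, descending half-log.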

[1] = second compound 0.0316 µM, first compound 0.0316 µM
[2] = second compound 0.0316 µM, first compound 0.1 µM
[3] = second compound 0.0316 µM, first compound 0.316 µM
[4] = second compound 0.0316 µM, first compound 1 µM
[5] = second compound 0.0316 µM, first compound 3.16 µM
[6] = second compound 0.0316 µM, first compound 10 µM
[7] = second compound 0.1 µM, first compound 0.0316 µM
[8] = second compound 0.1 µM, first compound 0.1 µM
[9] = second compound 0.1 µM, first compound 0.316 µM
[10] = second compound 0.1 µM, first compound 1 µM
[11] = second compound 0.1 µM, first compound 3.16 µM
[12] = second compound 0.1 µM, first compound 10 µM
[13] = second compound 0.316 µM, first compound 0.0316 µM
[14] = second compound 0.316 µM, first compound 0.1 µM
[15] = second compound 0.316 µM, first compound 0.316 µM
[16] = second compound 0.316 µM, first compound 1 µM
[17] = second compound 0.316 µM, first compound 3.16 µM
[18] = second compound 0.316 µM, first compound 10 µM
[19] = second compound 1 µM, first compound 0.0316 µM
[20] = second compound 1 µM, first compound 0.1 µM
[21] = second compound 1 µM, first compound 0.316 µM
[22] = second compound 1 µM, first compound 1 µM
[23] = second compound 1 µM, first compound 3.16 µM
[24] = second compound 1 µM, first compound 10 µM
[25] = second compound 3.16 µM, first compound 0.0316 µM
[26] = second compound 3.16 µM, first compound 0.1 µM
[27] = second compound 3.16 µM, first compound 0.316 µM
[28] = second compound 3.16 µM, first compound 1 µM
[29] = second compound 3.16 µM, first compound 3.16 µM
[30] = second compound 3.16 µM, first compound 10 µM
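Further: spheroids exposed to compounds for seven days before readout.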
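Wherever viability, T/C is given: 100% = DMSO vehicle control luminescence of the spheroids.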

Row | Compound | pIC50 (second compound 0.0316 µM) | pIC50 (second compound 0.1 µM) | pIC50 (second compound 0.316 µM) | pIC50 (second compound 1 µM) | pIC50 (second compound 3.16 µM) | viability, T/C [1] [%] | viability, T/C [2] [%] | viability, T/C [3] [%] | viability, T/C [4] [%] | viability, T/C [5] [%] | viability, T/C [6] [%] | viability, T/C [7] [%] | viability, T/C [8] [%] | viability, T/C [9] [%] | viability, T/C [13] [%] | viability, T/C [14] [%] | viability, T/C [19] [%] | viability, T/C [20] [%] | viability, T/C [25] [%] | viability, T/C [26] [%] | further results
1 | Cn1nccc1Nc1nccc(-c2cc3c(s2)C(C)(C)N(CCN2CCOCC2)C3=O)n1 + C=CC(=O)N1CCN(c2nc(OCC3CCCN3C)nc3c2CCN(c2cccc4cccc(C)c24)C3)CC1CC#N | 5.63 | 5.50 | 5.60 | 5.78 | 5.89 | 99.1 | 112 | 89.8 | 82 | 38.4 | 4.17 | 89.9 | 89.9 | 95.3 | 112 | 92.3 | 71.3 | 74.5 | 81.9 | 74.3 | viability, T/C [10]: 94.1%; viability, T/C [11]: 49.8%; viability, T/C [12]: 3.82%; viability, T/C [15]: 91.2%; viability, T/C [16]: 75.9%; viability, T/C [17]: 43%; viability, T/C [18]: 3.62%; viability, T/C [21]: 68.6%; viability, T/C [22]: 66.7%; viability, T/C [23]: 29.3%; viability, T/C [24]: 2.36%; viability, T/C [27]: 63%; viability, T/C [28]: 62.4%; viability, T/C [29]: 11.8%; viability, T/C [30]: 0.25%
2 | O=C(c1cc(Cc2n[nH]c(=O)c3ccccc23)ccc1F)N1CCN(C(=O)C2CC2)CC1 + C=CC(=O)N1CCN(c2nc(OCC3CCCN3C)nc3c2CCN(c2cccc4cccc(C)c24)C3)CC1CC#N | < 5.00 | < 5.00 | < 5.00 | < 5.00 | < 5.00 | 108 | 111 | 96 | 96.4 | 81.5 | 84.9 | 105 | 106 | 97.8 | 101 | 99.6 | 96.8 | 98.7 | 67.8 | 55.4 | viability, T/C [10]: 104%; viability, T/C [11]: 93.5%; viability, T/C [12]: 92.6%; viability, T/C [15]: 102%; viability, T/C [16]: 99.7%; viability, T/C [17]: 98.4%; viability, T/C [18]: 92.7%; viability, T/C [21]: 101%; viability, T/C [22]: 92%; viability, T/C [23]: 99.8%; viability, T/C [24]: 92.1%; viability, T/C [27]: 72.5%; viability, T/C [28]: 60.1%; viability, T/C [29]: 69.4%; viability, T/C [30]: 69.4%
3 | COC(=O)c1ccc2c(C(=Nc3ccc(N(C)C(=O)CN4CCN(C)CC4)cc3)c3ccccc3)c(O)[nH]c2c1 + C=CC(=O)N1CCN(c2nc(OCC3CCCN3C)nc3c2CCN(c2cccc4cccc(C)c24)C3)CC1CC#N | < 5.00 | < 5.00 | < 5.00 | < 5.00 | 6.23 | 93.5 | 89.8 | 98.9 | 87.8 | 81.7 | 83.3 | 95.5 | 94.9 | 92.3 | 81 | 88.5 | 85.8 | 86.2 | 70 | 65.2 | viability, T/C [10]: 83.8%; viability, T/C [11]: 81.8%; viability, T/C [12]: 82%; viability, T/C [15]: 86.3%; viability, T/C [16]: 77.1%; viability, T/C [17]: 68.1%; viability, T/C [18]: 77.8%; viability, T/C [21]: 86.7%; viability, T/C [22]: 78%; viability, T/C [23]: 75.6%; viability, T/C [24]: 76.3%; viability, T/C [27]: 57.9%; viability, T/C [28]: 42.3%; viability, T/C [29]: 7.1%; viability, T/C [30]: 0.21%
4 | Cn1nccc1Nc1nccc(-c2cc3c(s2)C(C)(C)N(CCN2CCOCC2)C3=O)n1 |  |  |  |  |  |  |  |  |  |  |  |  |  |  |  |  |  |  |  |  | viability, T/C (compound 0.0316 µM): 92.9% [middle of 5 runs]; viability, T/C (compound 0.1 µM): 98.1% [middle of 5 runs]; viability, T/C (compound 0.316 µM): 102% [middle of 5 runs]; viability, T/C (compound 1 µM): 89.6% [middle of 5 runs]; viability, T/C (compound 3.16 µM): 51.9% [middle of 5 runs]; viability, T/C (compound 10 µM): 4.24% [middle of 5 runs]; IC50 (curve of compound): 3.28 µM [middle of 5 runs]
5 | Cn1ncnc1[C@H]1c2n[nH]c(=O)c3cc(F)cc(c23)N[C@@H]1c1ccc(F)cc1 + C=CC(=O)N1CCN(c2nc(OCC3CCCN3C)nc3c2CCN(c2cccc4cccc(C)c24)C3)CC1CC#N | < 7.00 | < 7.00 | < 7.00 | < 7.00 | < 7.00 | 101 | 90.9 |  |  |  |  | 103 | 100 |  | 96.1 | 93 | 95.1 | 99.8 | 50.7 | 62.9 | viability, T/C (second compound 0.0316 µM, first compound 0.000316 µM): 116%; viability, T/C (second compound 0.0316 µM, first compound 0.001 µM): 112%; viability, T/C (second compound 0.0316 µM, first compound 0.00316 µM): 101%; viability, T/C (second compound 0.0316 µM, first compound 0.01 µM): 97.4%; viability, T/C (second compound 0.1 µM, first compound 0.000316 µM): 107%; viability, T/C (second compound 0.1 µM, first compound 0.001 µM): 105%; viability, T/C (second compound 0.1 µM, first compound 0.00316 µM): 98.5%; viability, T/C (second compound 0.1 µM, first compound 0.01 µM): 100%; viability, T/C (second compound 0.316 µM, first compound 0.000316 µM): 100%; viability, T/C (second compound 0.316 µM, first compound 0.001 µM): 104%; viability, T/C (second compound 0.316 µM, first compound 0.00316 µM): 103%; viability, T/C (second compound 0.316 µM, first compound 0.01 µM): 94.8%; viability, T/C (second compound 1 µM, first compound 0.000316 µM): 101%; viability, T/C (second compound 1 µM, first compound 0.001 µM): 106%; viability, T/C (second compound 1 µM, first compound 0.00316 µM): 94.6%; viability, T/C (second compound 1 µM, first compound 0.01 µM): 88.9%; viability, T/C (second compound 3.16 µM, first compound 0.000316 µM): 62.8%; viability, T/C (second compound 3.16 µM, first compound 0.001 µM): 68.4%; viability, T/C (second compound 3.16 µM, first compound 0.00316 µM): 61.5%; viability, T/C (second compound 3.16 µM, first compound 0.01 µM): 47.8%
